Data: US9504676B2, “Molecules inhibiting a metabolic pathway involving the Syk protein tyrosine kinase and method for identifying said molecules” (CENTRE NATIONAL DE LA RECHERCHE SCIENTIFIQUE, priority 2008, dated 2016)
Like-named read-outs stand apart in the source and are kept apart here.

What was measured:
RBL-2H3 cells = test: cells; assay type: cell-based, rat; details: for IC50: Rattus norvegicus
How it was run: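 RBL-2H3 rat basophils sensitized 12-16 h with anti-DNP IgE (0.5 μg/ml), pretreated 90 min at 37° C with compound (DMF 0.25% vehicle), then stimulated 45 min with DNP-BSA (50 ng ml^−1) or ionomycin (1.5 μM). Degranulation read as β-hexosaminidase release.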

Syk protein = molecular target: T1, Syk protein (UniProt P48025); test: In vitro affinity for Syk by fluorescence spectroscopy (spectrofluorometry); assay type: binding; details: read-out: Kd: dissociation constant with respect to Syk
T1 construct: none given for this test; fused on or other part: probably GST at the N-terminus (GST:Syk 6-242), if the ADA protein was also used here
Procedure: The dissociation constant of the molecules according to the invention with respect to Syk protein may particularly be measured in vitro by means of fluorescence spectroscopy (or spectrofluorometry).
Finally, the in vitro affinity of the molecule C-13 and some of the 87 molecules mentioned above for Syk protein was measured by means of fluorescence spectroscopy (or spectrofluorometry) and is expressed by the dissociation constant (or Kd) in μmole/liter (μM).

p38 and JNK = test: MAP kinase activation: p38 and JNK phosphorylation levels; assay type: cell-based; details: high C-13 concentration
Procedure: The association of SLP-76 with Vav and/or Nck plays a role in optimal MAP kinase activation in mast cells^27.
• 1) Chemical products and antibodies. A chemical bank of 3000 molecules (a varied subset) was acquired from ChemBridge, Inc. (San Diego, Calif.). Stocks of solutions of small molecules were prepared at a rate of 10 mM in DMSO (dimethylsulphoxide), except for C-13 (methyl 2-{5-[(3-benzyl-4-oxo-2-thioxo-1,3-thiazolidin-5-ylidene)methyl]-2-furyl}benzoate, ChemBridge ID No. 6197026) prepared in DMF (dimethylformamide). Unless specified otherwise, all the reagents were supplied by Sigma. Dinitrophenyl (DNP) hapten was acquired from Calbiochem. Sepharose GammaBind G and all the secondary antibodies were supplied by GE Health Amersham Biosciences. […] The binding of G4G11 with Syk was assessed by adding the 9E10 monoclonal antibody conjugated with HRP detecting the amino acid sequence EQKLISEEDLN of human c-myc protein located at the C-terminal end of the scFv fragment. To generate Syk mutants, targeted mutagenesis was used on GST:Syk 6-242 protein and the binding of G4G11 with the mutants was assessed in the presence of 5 μM of C-13. • 3) Cells, culture conditions and functional tests. […] The level of β-hexosaminidase released was measured 10 min later and the TNF-α titration was performed by means of a cytotoxicity test on L929 cells as described previously^10, 3 hours after stimulation. […]

[1] = RBL-2H3 cells, read-out: Degran. IC50: concentration inhibiting mast cell degranulation by 50%
[2] = RBL-2H3 cells, 0 to 40 μM, read-out: concentration inhibiting mast cell degranulation by 50% in vitro

Q: With `CCOC(=O)C1=C(C)NC2=C(C(=O)c3ccccc32)C1c1cc(Br)ccc1OCC(=O)O` (centres unmarked) [Molecule 3, {4-bromo-2-[3-(ethoxy carbonyl)-2-methyl-5-oxo-4,5-dihydro-1H-indeno[1,2-b]pyridin-4-yl]phenoxy} acetic acid] as the compound, how does the IC50 (RBL-2H3 cells; [1]) read?
A: Its IC50 is greater than 10 µg/mL.

Q: And the Kd (Syk protein)?
A: Its Kd is 6.2 µM.

Q: For `O=C(Nc1ccccc1)c1ccc(NCCN2CCOCC2)c(S(=O)(=O)N2CCOCC2)c1` [Molecule 46, 4-{[2-(4-morpholinyl)ethyl]amino}-3-(4-morpholinylsulphonyl)-N-phenylbenzamide], which IC50 (RBL-2H3 cells; [1]) is on record?
A: The IC50 was greater than 10 µg/mL.

Q: And the Kd (Syk protein)?
A: The Kd was 3 µM.

Q: Which results are given for `C=CCn1c(SCC(=O)Nc2cccc(OC)c2)nnc1C(C)NC(=O)c1ccccc1` (centres unmarked) [Molecule 66, N-{1-[4-allyl-5-({2-[(3-methoxyphenyl)amino]-2-oxoethyl}thio)-4H-1,2,4-triazol-3-yl]ethyl} benzamide]?
A: IC50 (RBL-2H3 cells; [1]): ~5 µg/mL; Kd (Syk protein): 8 µM

Q: For `O=C(C1=C(O)C(=O)N(Cc2cccnc2)C1c1cccc(Oc2ccccc2)c1)c1ccc(Cl)cc1` (centres unmarked) [Molecule 1, 4-(4-chlorobenzoyl)-3-hydroxy-5-(3-phenoxyphenyl)-1-(3-pyridinylmethyl)-1,5-dihydro-2H-pyrrol-2-one], which IC50 (RBL-2H3 cells; [1]) is on record?
A: The IC50 was greater than 10 µg/mL.

Q: And the Kd (Syk protein)?
A: The Kd was 5 µM.

Q: What does the source list for `COc1cccc(C2C(C(=O)c3ccc(C)cc3)=C(O)C(=O)N2CCCN2CCOCC2)c1` (centres unmarked) [Molecule 4, 3-hydroxy-5-(3-methoxyphenyl)-4-(4-methylbenzoyl)-1-[3-(4-morpholinyl)propyl]-1,5-dihydro-2H-pyrrol-2-one]?
A: IC50 (RBL-2H3 cells; [1]): > 10 µg/mL; Kd (Syk protein): 9.4 µM

Q: Which ionomycin-induced degranulation (RBL-2H3 cells) does the source give for `COC(=O)c1ccccc1-c1ccc(/C=C2/SC(=S)N(Cc3ccccc3)C2=O)o1` [Molecule C-13, methyl 2-{5-[(3-benzyl-4-oxo-2-thioxo-1,3-thiazolidin-5-ylidene)methyl]-2-furyl}benzoate] here?
A: The ionomycin-induced degranulation was “not detectably affected”.

Q: What about the IC50 (RBL-2H3 cells; RBL-2H3, read-out: Degran. IC50: concentration inhibiting mast cell degranulation by 50%) of the same compound?
A: Its IC50 is 1 µg/mL.

Q: What about the “phosphorylation levels of p38 and JNK” value (p38 and JNK) of the same compound?
A: The value was “remain normal”.

Q: And the Kd (Syk protein)?
A: Its Kd is 4.8 ± 0.2 µM.

Q: For `CCOC(=O)c1ccc(NC(=O)CSc2nnc(-c3ccco3)c(-c3ccco3)n2)cc1` [Molecule 54, ethyl 4-({[(5,6-di-2-furyl-1,2,4-triazin-3-yl)thio]acetyl}amino)benzoate], which IC50 (RBL-2H3 cells; [1]) is on record?
A: The IC50 was roughly 5 µg/mL.

Q: What about the Kd (Syk protein) of the same compound?
A: Its Kd is 1.6 µM.

Q: What does the source list for `CCOC(=O)c1sc(N2C(=O)C(O)=C(C(=O)c3ccc(F)cc3)C2c2ccc(C)cc2)nc1C` (centres unmarked) [Molecule 10, ethyl 2-[3-(4-fluorobenzoyl)-4-hydroxy-2-(4-methylphenyl)-5-oxo-2,5-dihydro-1H-pyrrol-1-yl]-4-methyl-1,3-thiazole-5-carboxylate]?
A: IC50 (RBL-2H3 cells; [1]): ~10 µg/mL; Kd (Syk protein): 6.3 µM

Q: How did the IC50 (RBL-2H3 cells; [1]) turn out when `CCOC(=O)c1ccc(N2C(=O)C(O)=C(C(=O)c3ccccc3)C2c2ccc(ON)cc2OC)cc1` (centres unmarked) [Molecule 6] was run?
A: Its IC50 is greater than 10 µg/mL.

Q: What about the Kd (Syk protein) of the same compound?
A: Its Kd is 6.1 µM.

Q: `COc1ccc(S(=O)(=O)N(CCc2ccccc2)CC(=O)Nc2ccc(C(N)=O)cc2)cc1` [Molecule 18] was tested. Which IC50 (RBL-2H3 cells; [1]) did it give?
A: Its IC50 is greater than 10 µg/mL.

Q: What about the Kd (Syk protein) of the same compound?
A: The Kd was 0.8 µM.

Q: How did the IC50 (RBL-2H3 cells; [1]) turn out when `O=C(NCc1nnc(NCc2nc3ccccc3c(=O)[nH]2)n1-c1ccccc1)c1ccccc1F` [Molecule 29] was run?
A: Its IC50 is roughly 10 µg/mL.

Q: And the Kd (Syk protein)?
A: The Kd was 6.7 µM.

Q: Which IC50 (RBL-2H3 cells; [1]) does the source give for `C=CCn1c(CNC(=O)c2cccc(C)c2)cnc1SCC(=O)Nc1cccc(C(=O)OC(C)C)c1` [Molecule 75] here?
A: Its IC50 is roughly 5 µg/mL.

Q: What about the Kd (Syk protein) of the same compound?
A: The Kd was 4.8 µM.

Q: Which results are given for `CCOc1ccc(NC(=O)CC2C(=O)N(c3ccc(OC)cc3)C(=S)N2CCN2CCOCC2)cc1` (centres unmarked) [Molecule 84, N-(4-ethoxyphenyl)-2-{1-(4-methoxyphenyl)-3-[2-(4-morpholinyl)ethyl]-5-oxo-2-thioxo-4-imidazolidinyl}acetamide]?
A: IC50 (RBL-2H3 cells; [1]): ~7 µg/mL; Kd (Syk protein): 15.6 µM

Q: Which IC50 (RBL-2H3 cells; [1]) does the source give for `Cc1cc(C(=O)Nc2ccccc2C(=O)O)ccc1NC(=O)COc1ccc(C(C)C)cc1` [Molecule 49, 2-[(4-{[(4-isopropylphenoxy)acetyl]amino}-3-methylbenzoyl)amino] benzoic acid] here?
A: Its IC50 is roughly 10 µg/mL.

Q: And the Kd (Syk protein)?
A: Its Kd is 5.5 µM.

Q: What does the source list for `COc1ccc(C2C(C(=O)c3cccs3)=C(O)C(=O)N2CCCn2ccnc2)c(OC)c1` (centres unmarked) [Molecule 2]?
A: IC50 (RBL-2H3 cells; [1]): > 10 µg/mL; Kd (Syk protein): 16.3 µM

Q: How did the IC50 (RBL-2H3 cells; [1]) turn out when `CCn1c(CCC(=O)c2ccc(Cl)cc2)nnc1SCC(=O)Nc1ccc(Br)c(C)c1C` [Molecule 82] was run?
A: Its IC50 is roughly 7 µg/mL.

Q: What about the Kd (Syk protein) of the same compound?
A: Its Kd is 3.2 µM.

Q: `CCOC(=O)c1ccc(NC(=O)CC2C(=O)N(c3ccc(Cl)cc3)C(=S)N2Cc2cccnc2)cc1` (centres unmarked) [Molecule 61] was tested. Which IC50 (RBL-2H3 cells; [2]) did it give?
A: The IC50 was roughly 5 µM.

Q: What about the IC50 (RBL-2H3 cells; [1]) of the same compound?
A: The IC50 was roughly 2 µg/mL.

Q: And the Kd (Syk protein)?
A: The Kd was 21.8 µM.

Q: `COc1cc(-c2nnc(SCC(=O)Nc3ccc(Cl)cc3)n2CCc2ccccc2)cc(OC)c1OC` [Molecule 59] was tested. Which IC50 (RBL-2H3 cells; [2]) did it give?
A: Its IC50 is roughly 5 µM.

Q: What about the IC50 (RBL-2H3 cells; [1]) of the same compound?
A: The IC50 was roughly 2 µg/mL.

Q: What about the Kd (Syk protein) of the same compound?
A: The Kd was 8.2 µM.

Q: With `COc1ccccc1C(=O)Nc1ccc(-c2nnc(SCC(=O)c3ccccc3)n2C)cc1` [Molecule 15, 2-methoxy-N-(4-(4-methyl-5-[(2-oxo-2-phenylethyl)thio]-4H-1,2,4-triazol-3-yl)phenyl)benzamide] as the compound, how does the IC50 (RBL-2H3 cells; [1]) read?
A: Its IC50 is roughly 2.5 µg/mL.

Q: And the Kd (Syk protein)?
A: The Kd was 5.6 µM.

Q: Which IC50 (RBL-2H3 cells; [1]) does the source give for `COc1ccc(C)cc1NC(=O)c1ccc(CN2CCC(Cc3ccccc3)CC2)cc1` [Molecule 17, 4-[(4-benzyl-1-piperidinyl)methyl}-N-(2-methoxy-5-methylphenyl)benzamide] here?
A: The IC50 was greater than 10 µg/mL.

Q: And the Kd (Syk protein)?
A: The Kd was 17.9 µM.
